Source: US20090202451A1, “ORAL CARE PRODUCT AND METHODS OF USE AND MANUFACTURE THEREOF” (COLGATE-PALMOLIVE COMPANY, priority 2008, published 2009)

Test system: S. sanguis
Assay: Ammonia production by S. sanguis at pH 4.0
Assay type: cell-based
Details: 5 millimolar amino acid, 0.1% sucrose, pH 4.0, 37° C., 30 minutes
Protocol: An overnight culture of S. sanguis was grown at 37° C. in trypticase soy broth (Becton Dickinson, Sparks, Md.). The culture was centrifuged at 5,000 rpm for 5 minutes at 1 milliliter at a time into preweighed tubes in order to accumulate approximately 5 milligrams of wet pellet weight. The pellet was then resuspended into 20 millimolar potassium phosphate buffer (J T Baker, Phillipsburg, N.J.), pH 4.0, to simulate a stressed environment for the bacterial cell where ammonia would be produced for survival. The final concentration was 5 milligram per milliliter. To this final concentration, a 5 millimolar final concentration of L-arginine. L-citrulline, or L-ornithine was added along with a 0.1% final concentration of sucrose (VWR, West Chester, Pa.). This mixture was then incubated at 37° C. in a shaking water bath for 30 minutes before ammonia production was determined.
In order to analyze for ammonia, an Ammonia Assay kit was used from Diagnostic Chemicals Limited (Oxford, Conn.). The intended use of this specific kit is for the in vitro quantification of ammonia in plasma, but the procedure was modified in order to determine and quantify the ammonia production in plaque and/or bacteria.

N=C(N)NCCC[C@H](N)C(=O)O [L-Arginine, L-arginine] was tested. Which Ammonia (Trial 3) did it give?
Its Ammonia is 2.20 ppm.

And the Ammonia (Trial 5)?
Its Ammonia is 0.5 ppm.
